Data set [1] deals with P. aeruginosa MB9799 (efflux-, IMP-1 plasmid). Type of data set: cell-based, Pseudomonas aeruginosa. As to conditions: efflux − (MB9799) strain; imipenem at 2 μg/mL; in the presence of a class A, C, D serine β-lactamase inhibitor closely related to relebactam. The method, boiled down: (§1)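 Isogenic P. aeruginosa PAO1 strains (efflux+ and multiple-efflux-pump-disrupted) carrying plasmid IMP-1, with inducible AmpC, tested by broth microdilution. Imipenem and/or ceftazidime fixed, usually at CLSI breakpoint, plus fixed class A/C β-lactamase inhibitor; titrated MBL inhibitor concentration restoring susceptibility recorded and compared between strains as efflux fold difference.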

Data set [2] concerns the target NDM-1 (Klebsiella pneumoniae, UniProt C7C422). Description: biochemical. It counts as biochemical. As to conditions: CCF2-FA fluorescence assay, 2 hours at 25° C. The method in brief: (§2)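 In pH 7 phosphate buffer (100 mM) with 10 μM ZnSO4 and 0.005% Tween-20, CCF2-FA hydrolysis (1.25 μM) by 1 pM NDM-1, 2 pM IMP-1 or 30 pM VIM-1 was run 2 h at 25° C with inhibitor from 20 to 0.00063 μM. Ex 405/em 460 nm signal fitted to a 4-parameter curve for IC50.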

Data set [3] has as its target VIM-2 (Escherichia coli, UniProt Q5U7L7). In words: biochemical. As to conditions: CCF2-FA fluorescence assay; read-out: VIM2 IC50.
Data set [4] has as its system P. aeruginosa MB9798 (efflux+, IMP-1 plasmid). As to conditions: for MB9798 MITC95 P. aeruginosa uM Efflux WT: efflux + (MB9798) strain, imipenem at 2 μg/mL, in the presence of a class A, C, D serine β-lactamase inhibitor closely related to relebactam; for Efflux ratio: fold difference between efflux+ (MB9798) and efflux− (MB9799) strains. The method, boiled down: as §1

Data set [5] has as its system Escherichia coli expressing NDM-1 (CLB30016). It counts as cell-based. As to conditions: with imipenem 1 μg/ml; 95% inhibition of bacterial growth. The method in brief: (§3)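 Synergy with imipenem at a fixed 1 μg/ml was scored by absorbance following 22–24 h incubation at 35 °C; the potentiating concentration (MITC95) was the lowest giving 95% growth inhibition.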
In data set [6] the test system is Klebsiella pneumoniae expressing VIM-1 (IHMA599644). It counts as cell-based. As to conditions: with imipenem 1 μg/ml; 95% inhibition of bacterial growth. The method in brief:
as §3

Data set [7] concerns Serratia marcescens expressing IMP-1 (CL5741). It counts as cell-based. As to conditions: with imipenem 1 μg/ml; 95% inhibition of bacterial growth. The method in brief:
as §3

The target in data set [8] is IMP-1 (Serratia marcescens, UniProt P52699). Description: biochemical. As to conditions: CCF2-FA fluorescence assay, 2 hours at 25° C.; read-out: IMP1 IC50. The method in brief:
as §2

In data set [9] the target is VIM-1 (Pseudomonas aeruginosa (strain ATCC 15692 / DSM 22644 / CIP 104116 / JCM 14847 / LMG 12228 / 1C / PRS 101 / PAO1), UniProt A0A0F7KYQ8). Description: biochemical. As to conditions: CCF2-FA fluorescence assay, 2 hours at 25° C.; read-out: VIM1 IC50. The method, boiled down:
as §2

SMILES strings stand for the structures.

Chain of NDM-1 (C7C422 whole entry, looked up, species assumed): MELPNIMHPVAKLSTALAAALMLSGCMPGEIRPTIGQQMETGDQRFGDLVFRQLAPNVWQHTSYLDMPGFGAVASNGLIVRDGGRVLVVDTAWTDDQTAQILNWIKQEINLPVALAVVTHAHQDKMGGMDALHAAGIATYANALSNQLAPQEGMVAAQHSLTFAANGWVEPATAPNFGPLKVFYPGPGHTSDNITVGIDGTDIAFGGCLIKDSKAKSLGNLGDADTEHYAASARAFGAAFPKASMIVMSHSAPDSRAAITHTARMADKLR
Chain of IMP-1 (P52699 whole entry, looked up, species assumed): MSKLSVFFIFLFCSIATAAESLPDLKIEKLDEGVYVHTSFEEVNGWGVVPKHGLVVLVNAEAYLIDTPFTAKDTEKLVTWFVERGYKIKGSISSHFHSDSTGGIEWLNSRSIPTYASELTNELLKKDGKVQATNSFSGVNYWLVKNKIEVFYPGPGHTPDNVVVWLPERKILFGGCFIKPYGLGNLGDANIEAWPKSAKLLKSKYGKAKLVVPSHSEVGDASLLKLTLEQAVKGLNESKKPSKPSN

One may read the IC50 as the concentration at which inhibition is half-maximal. Regarding `NS(=O)(=O)c1c(S(=O)(=O)N[C@@H]2CCNC2)ccc(N2CCC(Cc3ccccn3)CC2)c1-c1nnn[nH]1` [Example 106, 4-[4-(pyridin-2-ylmethyl)piperidin-1-yl]-N1-[(3R)-pyrrolidin-3-yl]-3-(1H-tetrazol-5-yl)benzene-1,2-disulfonamide], the “MB9799 MITC95 P. aeruginosa uM Efflux Mutant” value in [1] worked out at 3.13 µM. Further, the 50% inhibitory concentration (IC50) is 0.06 nM in data set [2], 0.46 nM in [3], 0.12 nM in [8] and 0.1 nM in data set [9]. For the same molecule, in data set [4], the “MB9798 MITC95 P. aeruginosa uM Efflux WT” value was 50.00 µM. Moreover, the Efflux ratio in data set [4] is reported as 16.00. For the same molecule, the “CLB30016 E. coli MITC95 NDM” value in data set [5] is 6.25 µM. The “IHMA599644 K. pneumoniae MITC95 VIM” value in data set [6] turned out to be 6.25 µM. For the same molecule, the “CL5741 S. marcescens MITC95 IMP” value in data set [7] was 3.13 µM.
For the molecule `NS(=O)(=O)c1c(S(=O)(=O)N[C@@H]2CCNC2)ccc(N2CCC3(CC2)CNC3)c1-c1nnn[nH]1` [Example 52, (R)-N1-(pyrrolidin-3-yl)-4-(2,7-diazaspiro[3.5]no-nan-7-yl)-3-(1H-tetrazol-5-yl)benzene-1,2-disulfonamide], the “MB9799 MITC95 P. aeruginosa uM Efflux Mutant” value in data set [1] was 0.78 µM. The IC50 in data set [2] was found to be 0.48 nM; in data set [3] it was 8.18 nM; in data set [8] it was 3.06 nM; in data set [9], 0.5 nM. In [4], the “MB9798 MITC95 P. aeruginosa uM Efflux WT” value turned out to be 0.78 µM. Also, in data set [4], the Efflux ratio is 1.00. Besides, in [5], the “CLB30016 E. coli MITC95 NDM” value worked out at 0.78 µM. Moreover, the “IHMA599644 K. pneumoniae MITC95 VIM” value in [6] came to 1.56 µM. Also, the “CL5741 S. marcescens MITC95 IMP” value in [7] was 1.56 µM.
With `CC1(O)CCN(c2ccc(S(=O)(=O)N[C@@H]3CCNC3)c(S(N)(=O)=O)c2-c2nnn[nH]2)CC1` [Example 71, 4-(4-hydroxy-4-methylpiperidin-1-yl)-N1-[(3R)-pyrrolidin-3-yl]-3-(1H-tetrazol-5-yl)benzene-1,2-disulfonamide], in [1], the “MB9799 MITC95 P. aeruginosa uM Efflux Mutant” value is 1.56 µM. For the same molecule, the IC50 in [2] is 0.26 nM; in data set [3] it was 1.69 nM; in data set [8], 0.7 nM; in data set [9] it was 0.53 nM. For the same molecule, the “MB9798 MITC95 P. aeruginosa uM Efflux WT” value in [4] came out at 1.56 µM. For the same molecule, the Efflux ratio in [4] was 1.00. In data set [5], the “CLB30016 E. coli MITC95 NDM” value was 3.13 µM. Further, the “IHMA599644 K. pneumoniae MITC95 VIM” value in data set [6] was determined as 6.25 µM. For the same molecule, the “CL5741 S. marcescens MITC95 IMP” value in data set [7] turned out to be 3.13 µM.
On to `NCCNS(=O)(=O)C1CCN(c2ccc(S(=O)(=O)N[C@@H](CN)CO)c(S(N)(=O)=O)c2-c2nn[nH]n2)CC1` [Example 202, (S)-N1-(1-amino-3-hydroxypropan-2-yl)-4-(4-(N-(2-aminoethyl)sulfamoyl)piperidin-1-yl)-3-(2H-tetrazol-5-yl)benzene-1,2-disulfonamide], for which the “MB9799 MITC95 P. aeruginosa uM Efflux Mutant” value in [1] came to 1.56 µM. The IC50 in [2] came to 0.44 nM; in data set [3], 1.6 nM; in [8] it was 0.58 nM; in data set [9], 0.09 nM. In addition, the “MB9798 MITC95 P. aeruginosa uM Efflux WT” value in data set [4] was 1.56 µM. Further, the Efflux ratio in data set [4] is 1.00. The “CLB30016 E. coli MITC95 NDM” value in data set [5] stood at 0.78 µM. Moreover, the “IHMA599644 K. pneumoniae MITC95 VIM” value in data set [6] was 1.56 µM. In data set [7], the “CL5741 S. marcescens MITC95 IMP” value is 1.56 µM.
Regarding `NS(=O)(=O)c1c(S(=O)(=O)N[C@@H]2CCNC2)ccc(N2CC(N3CCOCC3)C2)c1-c1nnn[nH]1` [Example 111, 4-(3-morpholin-4-ylazetidin-1-yl)-N1-[(3R)-pyrrolidin-3-yl]-3-(1H-tetrazol-5-yl)benzene-1,2-disulfonamide], in data set [1], the “MB9799 MITC95 P. aeruginosa uM Efflux Mutant” value was found to be 1.56 µM. Further, the 50% inhibitory concentration (IC50) was 4.56 nM in data set [2], 8.65 nM in data set [3], 4.16 nM in [8] and 1.24 nM in [9]. For the same molecule, in data set [4], the “MB9798 MITC95 P. aeruginosa uM Efflux WT” value was 12.50 µM. In addition, in data set [4], the Efflux ratio is given as 8.00. Besides, the “CLB30016 E. coli MITC95 NDM” value in data set [5] worked out at 0.78 µM. Moreover, in [6], the “IHMA599644 K. pneumoniae MITC95 VIM” value was determined as 3.13 µM. For the same molecule, the “CL5741 S. marcescens MITC95 IMP” value in [7] was 1.56 µM.
Regarding `NC[C@@H](O)CNS(=O)(=O)c1ccc(N2CC[C@H](N)[C@H](F)C2)c(-c2nn[nH]n2)c1S(N)(=O)=O` [Example 195, N1-((R)-3-amino-2-hydroxypropyl)-4-((3R,4S)-4-amino-3-fluoropiperidin-1-yl)-3-(2H-tetrazol-5-yl)benzene-1,2-disulfonamide], the “MB9799 MITC95 P. aeruginosa uM Efflux Mutant” value in [1] came out at 0.78 µM. In addition, the IC50 in data set [2] was 1.51 nM; in [3] it was 2.86 nM; in data set [8], 4.27 nM; in data set [9] it was 0.14 nM. Besides, the “MB9798 MITC95 P. aeruginosa uM Efflux WT” value in data set [4] was found to be 0.78 µM. Moreover, the Efflux ratio in data set [4] is 1.00. Also, the “CLB30016 E. coli MITC95 NDM” value in data set [5] came to 0.20 µM. The “IHMA599644 K. pneumoniae MITC95 VIM” value in data set [6] was determined as 0.39 µM. Besides, the “CL5741 S. marcescens MITC95 IMP” value in data set [7] amounted to 0.20 µM.
`NC[C@@H](O)CNS(=O)(=O)c1ccc(N2CCN(C(CO)CO)CC2)c(-c2nn[nH]n2)c1S(N)(=O)=O` [Example 160, (R)-N1-(3-amino-2-hydroxypropyl)-4-(4-(1,3-dihydroxypropan-2-yl)piperazin-1-yl)-3-(2H-tetrazol-5-yl)benzene-1,2-disulfonamide]: the “MB9799 MITC95 P. aeruginosa uM Efflux Mutant” value in data set [1] was 1.56 µM. Also, the IC50 in [2] came out at 1.16 nM; in data set [3], 5.49 nM; in [8] it was 1.2 nM; in data set [9], 1.34 nM. Moreover, the “MB9798 MITC95 P. aeruginosa uM Efflux WT” value in data set [4] is 1.56 µM. Also, the Efflux ratio in data set [4] worked out at 1.00. Also, the “CLB30016 E. coli MITC95 NDM” value in data set [5] amounted to 0.78 µM. The “IHMA599644 K. pneumoniae MITC95 VIM” value in data set [6] is 1.56 µM. For the same molecule, the “CL5741 S. marcescens MITC95 IMP” value in [7] is 0.20 µM.
`NCCNS(=O)(=O)c1ccc(N2CCC(CN)CC2)c(-c2nnn[nH]2)c1S(N)(=O)=O` [Example 35, N1-(2-aminoethyl)-4-(4-(aminomethyl)piperidin-1-yl)-3-(1H-tetrazol-5-yl)benzene-1,2-disulfonamide]: the “MB9799 MITC95 P. aeruginosa uM Efflux Mutant” value in [1] came out at 0.78 µM. The IC50 stood at 3.6 nM in data set [2], 6.69 nM in data set [3], 5.1 nM in data set [8] and 0.32 nM in data set [9]. Besides, the “MB9798 MITC95 P. aeruginosa uM Efflux WT” value in data set [4] was determined as 0.78 µM. The Efflux ratio in data set [4] is recorded as 1.00. For the same molecule, the “CLB30016 E. coli MITC95 NDM” value in data set [5] was found to be 0.39 µM. Also, in data set [6], the “IHMA599644 K. pneumoniae MITC95 VIM” value came out at 3.13 µM. Moreover, in [7], the “CL5741 S. marcescens MITC95 IMP” value is 0.78 µM.
As for `NC[C@@H](O)CNS(=O)(=O)c1ccc(N2C[C@@H]3[C@@H](CN)[C@@H]3C2)c(-c2nn[nH]n2)c1S(N)(=O)=O` [Example 11], the “MB9799 MITC95 P. aeruginosa uM Efflux Mutant” value in data set [1] worked out at 1.56 µM. Further, the IC50 in [2] is 8.96 nM; in data set [3], 24.7 nM; in data set [8], 35.5 nM; in data set [9], 2.03 nM. Besides, the “MB9798 MITC95 P. aeruginosa uM Efflux WT” value in data set [4] was 6.25 µM. For the same molecule, in data set [4], the Efflux ratio is 4.00. Moreover, the “CLB30016 E. coli MITC95 NDM” value in data set [5] worked out at 0.78 µM. In data set [6], the “IHMA599644 K. pneumoniae MITC95 VIM” value is 0.78 µM. Also, the “CL5741 S. marcescens MITC95 IMP” value in [7] came out at 1.56 µM.
Consider `NC[C@@H](O)CNS(=O)(=O)c1ccc(N2CCC(C(N)CO)CC2)c(-c2nn[nH]n2)c1S(N)(=O)=O` (single isomer, unassigned) [Example 181], for which the “MB9799 MITC95 P. aeruginosa uM Efflux Mutant” value in [1] was determined as 0.78 µM. The half-inhibitory concentration (IC50) in data set [2] amounted to 4.62 nM; in [3], 5.87 nM; in data set [8] it was 5.78 nM; in [9] it was 0.22 nM. In addition, the “MB9798 MITC95 P. aeruginosa uM Efflux WT” value in data set [4] worked out at 0.78 µM. Moreover, the Efflux ratio in [4] worked out at 1.00. In addition, the “CLB30016 E. coli MITC95 NDM” value in [5] is 0.39 µM. Also, the “IHMA599644 K. pneumoniae MITC95 VIM” value in data set [6] was 1.56 µM. Moreover, the “CL5741 S. marcescens MITC95 IMP” value in data set [7] was determined as 0.39 µM.

Values taken from patent publication US11207312B2, “Metallo-beta-lactamase inhibitors and methods of use thereof” (priority 2017, dated 2021).
